In the supplement of paper PMC11451515:

Tests used:
Conditions in all cases: 48 h
[1] = tested on: SEM cells; experiment: cell viability relative to DMSO control; higher = less cytotoxic
Outline: (§1)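 Viability is expressed as a percentage of DMSO wells within each plate, and cell-free wells serve as background. Seeding densities in the 1536-well plates (5 μl) were 500 cells/well for NOMO1 or SEM leukemia cells and 1000 cells/well for P12-Ichikawa. Each line was adapted for at least four passages in each medium. Library compounds in DMSO were pin-dosed at 47 μM to 0.79 nM (11 points, threefold), and CellTiter-Glo One luminescence was read after 48 h at 37°C.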

[2] = tested on: P12-Ichikawa; experiment: as above
Outline: as §1

[3] = tested on: NOMO1; experiment: as above
Outline: as §1

[4] = tested on: SEM cells; experiment: AUC of viability dose-response curve (% viability x log10 dose units); higher = less sensitive
Outline: (§2)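 In 1536-well plates, leukemia cells adapted to each medium (500 or 1000 cells/well) were exposed for 48 h at 37°C to library compounds in DMSO across 11 threefold doses, 47 μM down to 0.79 nM. Viability was read by CellTiter-Glo One luminescence and normalised per plate to DMSO and cell-free wells. A four-parameter log-logistic fit over log10 doses was integrated by trapezoidal rule. This yielded the area under the curve, with over-full-viability curves scaled and quality-control failures dropped.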

[5] = tested on: P12-Ichikawa; experiment: as above
Outline: as §2

[6] = tested on: NOMO1; experiment: as above
Outline: as §2

O=C(c1ccc(C(=O)N2CCC(N3CCCC3)CC2)c(Nc2ccccc2)c1)N1CCC(N2CCCC2)CC1
cell viability [%]
Conditions	[1]	[2]	[3]
HPLM + 10% dialyzed FBS, 0.000781 µM	119	103	98.6
HPLM + 10% dialyzed FBS, 0.00234 µM	111	103	110
HPLM + 10% dialyzed FBS, 0.00702 µM	115	103	104
HPLM + 10% dialyzed FBS, 0.0211 µM	94.8	106	103
HPLM + 10% dialyzed FBS, 0.0632 µM	116	108	105
HPLM + 10% dialyzed FBS, 0.19 µM	113	102	111
HPLM + 10% dialyzed FBS, 0.569 µM	107	106	112
HPLM + 10% dialyzed FBS, 1.71 µM	107	109	104
HPLM + 10% dialyzed FBS, 5.12 µM	103	98.9	102
HPLM + 10% dialyzed FBS, 15.4 µM	98.7	96.5	113
HPLM + 10% dialyzed FBS, 46.1 µM	96.4	94.5	112
RPMI 5 mM glucose + 10% FBS, 0.000781 µM	112	104	85.6
RPMI 5 mM glucose + 10% FBS, 0.00234 µM	106	95.3	98.2
RPMI 5 mM glucose + 10% FBS, 0.00702 µM	109	93.7	90.3
RPMI 5 mM glucose + 10% FBS, 0.0211 µM	104	101	95
RPMI 5 mM glucose + 10% FBS, 0.0632 µM	105	98.1	106
RPMI 5 mM glucose + 10% FBS, 0.19 µM	115	100	91.7
RPMI 5 mM glucose + 10% FBS, 0.569 µM	117	95.8	82.3
RPMI 5 mM glucose + 10% FBS, 1.71 µM	102	97.4	94.3
RPMI 5 mM glucose + 10% FBS, 5.12 µM	89	100	99.7
RPMI 5 mM glucose + 10% FBS, 15.4 µM	102	92.1	92.6
RPMI 5 mM glucose + 10% FBS, 46.1 µM	103	95.4	107
RPMI 5 mM glucose + 10% dialyzed FBS, 0.000781 µM	80.7	98.3	101
RPMI 5 mM glucose + 10% dialyzed FBS, 0.00234 µM	91.2	97.5	110
RPMI 5 mM glucose + 10% dialyzed FBS, 0.00702 µM	102	95.9	111
RPMI 5 mM glucose + 10% dialyzed FBS, 0.0211 µM	104	96.3	98.6
RPMI 5 mM glucose + 10% dialyzed FBS, 0.0632 µM	98	100	98.2
RPMI 5 mM glucose + 10% dialyzed FBS, 0.19 µM	102	101	104
RPMI 5 mM glucose + 10% dialyzed FBS, 0.569 µM	104	103	101
RPMI 5 mM glucose + 10% dialyzed FBS, 1.71 µM	112	101	109
RPMI 5 mM glucose + 10% dialyzed FBS, 5.12 µM	101	91.1	96.7
RPMI 5 mM glucose + 10% dialyzed FBS, 15.4 µM	88.5	96.1	96.3
RPMI 5 mM glucose + 10% dialyzed FBS, 46.1 µM	82.6	86.1	97.3

AUC of viability dose-response curve
Conditions	[4]	[5]	[6]
HPLM + 10% dialyzed FBS	443	468	462
RPMI 5 mM glucose + 10% FBS	461	466	452
RPMI 5 mM glucose + 10% dialyzed FBS	462	465	458

CCc1nc(C(N)=O)c(Nc2ccc(N3CCC(N4CCN(C)CC4)CC3)c(OC)c2)nc1NC1CCOCC1
cell viability [%]
Conditions	[1]	[2]	[3]
HPLM + 10% dialyzed FBS, 0.000781 µM	92.9	106	–
HPLM + 10% dialyzed FBS, 0.00234 µM	105	103	–
HPLM + 10% dialyzed FBS, 0.00702 µM	120	111	–
HPLM + 10% dialyzed FBS, 0.0211 µM	104	111	–
HPLM + 10% dialyzed FBS, 0.0632 µM	95.5	114	–
HPLM + 10% dialyzed FBS, 0.19 µM	65	97.4	–
HPLM + 10% dialyzed FBS, 0.569 µM	42.9	97.7	–
HPLM + 10% dialyzed FBS, 1.71 µM	36.3	102	–
HPLM + 10% dialyzed FBS, 5.12 µM	21.1	91.7	–
HPLM + 10% dialyzed FBS, 15.4 µM	17.8	75.1	–
HPLM + 10% dialyzed FBS, 46.1 µM	14.6	52.6	–
RPMI 5 mM glucose + 10% FBS, 0.000781 µM	–	103	99.1
RPMI 5 mM glucose + 10% FBS, 0.00234 µM	–	101	103
RPMI 5 mM glucose + 10% FBS, 0.00702 µM	–	109	109
RPMI 5 mM glucose + 10% FBS, 0.0211 µM	–	117	124
RPMI 5 mM glucose + 10% FBS, 0.0632 µM	–	112	104
RPMI 5 mM glucose + 10% FBS, 0.19 µM	–	100	112
RPMI 5 mM glucose + 10% FBS, 0.569 µM	–	98.7	103
RPMI 5 mM glucose + 10% FBS, 1.71 µM	–	102	93.7
RPMI 5 mM glucose + 10% FBS, 5.12 µM	–	88.9	64.2
RPMI 5 mM glucose + 10% FBS, 15.4 µM	–	71.1	55.8
RPMI 5 mM glucose + 10% FBS, 46.1 µM	–	52.3	43.1
RPMI 5 mM glucose + 10% dialyzed FBS, 0.000781 µM	115	110	124
RPMI 5 mM glucose + 10% dialyzed FBS, 0.00234 µM	97.9	109	112
RPMI 5 mM glucose + 10% dialyzed FBS, 0.00702 µM	138	123	101
RPMI 5 mM glucose + 10% dialyzed FBS, 0.0211 µM	139	111	123
RPMI 5 mM glucose + 10% dialyzed FBS, 0.0632 µM	94	131	147
RPMI 5 mM glucose + 10% dialyzed FBS, 0.19 µM	69.6	104	99.9
RPMI 5 mM glucose + 10% dialyzed FBS, 0.569 µM	43	108	77.9
RPMI 5 mM glucose + 10% dialyzed FBS, 1.71 µM	33.1	110	78.7
RPMI 5 mM glucose + 10% dialyzed FBS, 5.12 µM	17	94.8	57.5
RPMI 5 mM glucose + 10% dialyzed FBS, 15.4 µM	18.3	75.9	38.1
RPMI 5 mM glucose + 10% dialyzed FBS, 46.1 µM	12.2	42.1	33.3

AUC of viability dose-response curve
Conditions	[4]	[5]	[6]
HPLM + 10% dialyzed FBS	291	438	389
RPMI 5 mM glucose + 10% FBS	285	436	410
RPMI 5 mM glucose + 10% dialyzed FBS	277	434	363
